Test results reported in patent publication US11793880B2, “Conjugates of quaternized tubulysin compounds” (Seagen Inc., priority 2015, dated 2023).

Legend:
[1] = test system: Karpas299, L540cy, L428, DEL, DEL/BVR cell lines; experiment: In vitro assays - tubulysin ADCs, statements across the cell line panel; assay type: cell-based; details: Table 5; cAC10 ADCs 8 drugs/mAb, quaternized tubulysin M
Protocol: (§1) In vitro assays. Cells cultured in log-phase growth were seeded for 24 h in 96-well plates containing 150 μL RPMI 1640 supplemented with 20% FBS. Serial dilutions of antibody-drug conjugates in cell culture media were prepared at 4× working concentrations; 50 μL of each dilution was added to the 96-well plates. […] After 96 h, growth inhibition was assessed by CellTiter-Glo® (Promega, Madison, WI) and luminescence was measured on a plate reader.
(§2) In vitro assays—tubulysin ADCs. ADCs were prepared by t Ell reduction of interchain disulfides to reveal 8-conjugatable cysteines/antibody that were alkylated through Michael addition with the maleimide-containing Drug Linker compounds. […] conjugates hearing quaternized tubulysin ethers with and without a PEG12 side-chain were compared to their tubulysin M analogs.
(§3) Several hydrophilic linker constructs incorporating quaternized tubulysin M were prepared and evaluated in vitro; the results are shown in Table 5. The data (IC50 values in ng/mL) indicate that Conjugates prepared from Drug Linker compounds having quaternized tubulysin M linked via a hydrophilic ValGlu dipeptide with (95) or without (91) a PEG12 side chain, or linked via a hydrophilic glucuronide (82) provide ADCs that are equipotent to the ValAla comparator (15).

[2] = test system: DEL, ALCL; details: Table 5; cAC10 ADCs 8 drugs/mAb, MDPR-Linker-TubM
Protocol: as §1, §2, §3

[3] = test system: L540cy, HL; details: Table 5; cAC10 ADCs 8 drugs/mAb, MDPR-Linker-TubM
Protocol: as §1, §2, §3

[4] = test system: L428, MDR + HL; details: Table 5; cAC10 ADCs 8 drugs/mAb, MDPR-Linker-TubM
Protocol: as §1, §2, §3

[5] = test system: DEL/BVR, MDR + ALCL; details: Table 5; cAC10 ADCs 8 drugs/mAb, MDPR-Linker-TubM
Protocol: as §1, §2, §3

[6] = test system: antigen-negative Hep3B hepatocellular carcinoma cells; details: Table 5, cAC10 ADCs 8 drugs/mAb, MDPR-Linker-TubM
Protocol: as §1, §3

| SMILES | potency relative to the ValAla comparator (15), in words [1] | IC50, DEL, ALCL [2] | IC50, L540cy, HL [3] | IC50, L428, MDR + HL [4] | IC50, DEL/BVR, MDR + ALCL [5] | IC50, Hep3B CD30- HCC [6] |
| --- | --- | --- | --- | --- | --- | --- |
| CC[C@H](C)[C@H](NC(=O)[C@H]1CCCC[N+]1(C)Cc1ccc(NC(=O)[C@H](CCC(=O)O)NC(=O)[C@@H](NC(=O)[C@H](CCCCNC(=O)CCOCCOCCOCCOCCOCCOCCOCCOCCOCCOCCOCCOC)NC(=O)[C@H](CN)N2C(=O)C=CC2=O)C(C)C)cc1)C(=O)N(C)[C@H](C[C@@H](OC(C)=O)c1nc(C(=O)N[C@@H](Cc2ccccc2)C[C@H](C)C(=O)O)cs1)C(C)C (stereo partly drawn) [Compound 95] | equipotent | 0.1 ng/mL | 0.8 ng/mL | 0.2 ng/mL | 2 ng/mL | >1000 ng/mL |
| CC[C@H](C)[C@H](NC(=O)[C@H]1CCCC[N+]1(C)Cc1ccc(NC(=O)[C@H](CCC(=O)O)NC(=O)[C@@H](NC(=O)[C@H](CN)N2C(=O)C=CC2=O)C(C)C)cc1)C(=O)N(C)[C@H](C[C@@H](OC(C)=O)c1nc(C(=O)N[C@@H](Cc2ccccc2)C[C@H](C)C(=O)O)cs1)C(C)C (stereo partly drawn) [Compound 91, (2R)-2-(((2S,3S)-1-(((1R,3R)-1-acetoxy-1-(4-(((2R,4S)-4-carboxy-1-phenylpentan-2-yl)carbamoyl)thiazol-2-yl)-4-methylpentan-3-yl)(methyl)amino)-3-methyl-1-oxopentan-2-yl)carbamoyl)-1-(4-((S)-2-((S)-2-((S)-3-amino-24 (2,5-dioxo-2,5-dihydro-1H-pyrrol-1-yl)propanamido)-3-methylbutanamido)-4-carboxybutanamido)benzyl)-1-methylpiperidin-1-ium] | equipotent | 0.1 ng/mL | 1 ng/mL | 0.3 ng/mL | 2 ng/mL | >1000 ng/mL |
